Laboratory results reported in patent US4740501A (priority 1985, dated 1988).
Where two headings read alike, the source gives them in different places.

What was measured:
MMTV = assay: Extracellular MMTV protein by ELISA; assay type: cell-based, mouse; settings: for ug MMTV protein/150 cm^2 culture: untreated 20.32
Procedure: Extracellular MMTV was quantitated using a modification of a direct Enzyme-Linked Immunosorbent Assay (ELISA) technique devised by Khan et al. (1982). Nunc immunoplates were sensitized with MMTV preparations disrupted in 2% NP-40 and serially diluted in 0.15M Na2 CO3 -0.035M NaHCO3 buffer, pH 8.6, by incubation in a moist chamber for 18 hours at 4° C. Wells were washed three times between all procedural steps with 0.01M phosphate-buffered-saline with 0.5% Tween 80, pH 7.4 (Pi/Na/Tween). Sensitized wells were then sequentially subjected to 1 hour incubations with (1) 0.5% bovine serum albumin in Pi/NaCl/Tween (4° C.), followed by either (2) preimmune rabbit sera or multivalent anti-MMTV antisera diluted 1:50 in Pi/NaCl/Tween at 37° C., and finally (3) a 1:1000 dilution of alkaline phosphatase-conjugated goat anti-rabbit IgG (Dynatech, Inc.) at 37° C. Reactions were terminated with 25 ul of 3N NaOH after incubation for 1 to 2 hours at 37° C. Intensity of the color reactions were determined at […] using a Dynatech ELISA plate reader. The detection limit of the assay was 3-5 ng MMTV protein per well.

AMML = assay: Survival of fresh human leukemic cells, continuous exposure; assay type: cell-based
L-1210 leukemia cells = assay: Bioassay of tumorigenicity of in vitro treated tumor cells in syngeneic hosts; assay type: in vivo; settings: BDf1 mice surviving 45 days
ALL (N cell leukemia) = assay: Survival of fresh human leukemic cells, continuous exposure; assay type: cell-based; settings: for % tumor cell survival: ALL
L1210 MTX = assay: MTX and cisplatin cross-resistance test, 24 hour exposure; assay type: cell-based
MMTV proteins = assay: Intracellular MMTV polypeptides (immune precipitation, NaDodSO4-PAGE); assay type: cell-based, mouse; settings: for activity at 15 µM: Mus musculus, control 100, read-out: Relative level of MMTV-associated radioactivity (%): Total MMTV Protein
Procedure: Intracellular MMTV proteins were identified in monolayer cells after 24 or 48 hour exposure to 15 uM PTT.119. Cultures were labeled with 25 uCi/ml of (^3 H)-leucine for the first 24 hours and were then doubly labeled with (^35 S)-methionine when the spent media were replenished. The relative rates of MMTV polypeptide synthesis were determined using parallel cultures continuously-treated with PTT.119 and pulse labeled for 15 minutes with ^35 S-methionine. Following labeling, the cells were washed twice in cold 0.01M phosphate-buffered saline, pH 7.5, and a solution of protease inhibitors added to yield a final concentration of 1 uM pepstatin, 10 ug soybean trypsin inhibitor/ml, and 1 mM N-ethyl maleimide. Cells were then disrupted in 0.05M phosphate buffer containing 0.1M NaCl and 0.1% Triton X-100, pH 7.5 (Pi/NaCl/Triton). Cells were scraped from the substrate and lysis completed by passing the suspensions through a 27 gauge needle five times. Nuclei were removed by centrifugation at 600×g for 10 minutes at 4° C. and 100 ul aliquots of the supernatants mixed with 10 ul preimmune rabbit sera and 50 ul of 10% […] formalin-fixed and heat-killed.
Following a 15 minute incubation at 26° C., the Staphlococcus aureus (Cowan strain) immunoabsorbent was removed by centrifugation at 10,000×g for 1 minute in a Beckman microfuge. Supernatants (100 ul) were sequentially incubated at 26° C. with 33 ul of rabbit anti-MMTV antisera for 25 minutes and 150 ul of 10% S. aureus for 15 minutes. S. aureus was then pelleted and the precipitate washed five times in Pi/NaCl/Triton. Samples were finally resuspended in 20 ul of 1% NaDodSO4 /2-mercaptoethanol, heated for 1 minute at 100° C. to release MMTV proteins, and centrifuged to remove S. aureus. Supernatants were then subjected to NaDodSO4 -PAGE. Samples were disrupted in 1% NaDodSO4 and 1% B-mercaptoethanol at 100° C. for 1 minute electrophoresed on 10-20% polyacrylamide gradient slab gels using a discontinuous buffer system. Electrophoresis of immune precipitates from cell lysates was carried out in a similar manner using 7.5-15% polyacrylamide gradients. Mr of MMTV-related polypeptides were determined by coelectrophoresis of [^14 C]-protein standards (Mr 30,000 to 50,000 Da; New England Nuclear). Radioactivity was determined and the levels associated with MMTV polypeptide peaks quantitated using a generalized curve-fit computer program.

L1210DDP = assay: cells; assay type: cell-based

For CCOC(=O)[C@H](CCSC)NC(=O)[C@H](Cc1cccc(N(CCCl)CCCl)c1)NC(=O)[C@@H](N)Cc1ccc(F)cc1.Cl [PTT.119, 3-(p-fluorophenyl)-L-alanyl-3-[m-bis(2-chloroethyl)aminophenyl]-L-alanyl-L-methionine ethyl ester hydrochloride], the “levels of extracellular MMTV compared to control cells” value (MMTV; 0.15, 1.5 and 7.5 uM, after 10 in vitro passages) was “less than 50%”, the “ug MMTV protein/150 cm^2 culture” value (MMTV; continual 0.15 uM, passage 1) was 17.4 µg and the “ug MMTV protein/150 cm^2 culture” value (MMTV; continual 0.15 uM, passage 5-6) was 16.8 µg. For the same molecule, the “ug MMTV protein/150 cm^2 culture” value (MMTV; continual 0.15 uM, passage 9-10) was 9.52 µg, the “ug MMTV protein/150 cm^2 culture” value (MMTV; continual 1.5 uM, passage 5-6) was 15.9 µg and the “ug MMTV protein/150 cm^2 culture” value (MMTV; continual 1.5 uM, passage 9-10) was 7.5 µg. The “ug MMTV protein/150 cm^2 culture” value (MMTV; continual 7.5 uM, passage 5-6) was 11.8 µg, the “ug MMTV protein/150 cm^2 culture” value (MMTV; continual 7.5 uM, passage 9-10) was 8.3 µg and the “MMTV protein, % of control level” value (MMTV; day 1, 15 uM 2 hr pulse) was 78%. For the same molecule, the “ug MMTV protein/75 cm^2 flask” value (MMTV; day 1, 15 uM 2 hr pulse, control 20.6) was 16.0 µg, the “MMTV protein, % of control level” value (MMTV; day 1, 15 uM 4 hr pulse) was 81% and the “ug MMTV protein/75 cm^2 flask” value (MMTV; day 1, 15 uM 4 hr pulse, control 20.6) was 16.7 µg. For the same molecule, the “MMTV protein, % of control level” value (MMTV; day 1, 37.5 uM 0.5 hr pulse) was 70%, the “ug MMTV protein/75 cm^2 flask” value (MMTV; day 1, 37.5 uM 0.5 hr pulse, control 20.6) was 14.4 µg and the “MMTV protein, % of control level” value (MMTV; day 1, 37.5 uM 1.0 hr pulse) was 53%. For the same molecule, the “ug MMTV protein/75 cm^2 flask” value (MMTV; day 1, 37.5 uM 1.0 hr pulse, control 20.6) was 11.0 µg, the “MMTV protein, % of control level” value (MMTV; day 2, 15 uM 2 hr pulse) was 64% and the “ug MMTV protein/75 cm^2 flask” value (MMTV; day 2, 15 uM 2 hr pulse, control 19.3) was 12.3 µg. For the same molecule, the “MMTV protein, % of control level” value (MMTV; day 2, 15 uM 4 hr pulse) was 62%, the “ug MMTV protein/75 cm^2 flask” value (MMTV; day 2, 15 uM 4 hr pulse, control 19.3) was 11.9 µg and the “MMTV protein, % of control level” value (MMTV; day 2, 37.5 uM 0.5 hr pulse) was 57%. The “ug MMTV protein/75 cm^2 flask” value (MMTV; day 2, 37.5 uM 0.5 hr pulse, control 19.3) was 11.0 µg, the “MMTV protein, % of control level” value (MMTV; day 2, 37.5 uM 1.0 hr pulse) was 58% and the “ug MMTV protein/75 cm^2 flask” value (MMTV; day 2, 37.5 uM 1.0 hr pulse, control 19.3) was 11.2 µg. For the same molecule, the “MMTV protein, % of control level” value (MMTV; day 7, 15 uM 2 hr pulse) was 31%, the “ug MMTV protein/75 cm^2 flask” value (MMTV; day 7, 15 uM 2 hr pulse, control 35.2) was 11.0 µg and the “MMTV protein, % of control level” value (MMTV; day 7, 15 uM 4 hr pulse) was 22%. The “ug MMTV protein/75 cm^2 flask” value (MMTV; day 7, 15 uM 4 hr pulse, control 35.2) was 7.6 µg, the “MMTV protein, % of control level” value (MMTV; day 7, 37.5 uM 0.5 hr pulse) was 16% and the “ug MMTV protein/75 cm^2 flask” value (MMTV; day 7, 37.5 uM 0.5 hr pulse, control 35.2) was 5.8 µg. For the same molecule, the “MMTV protein, % of control level” value (MMTV; day 7, 37.5 uM 1.0 hr pulse) was 3%, the “ug MMTV protein/75 cm^2 flask” value (MMTV; day 7, 37.5 uM 1.0 hr pulse, control 35.2) was 0.9 µg and the “% tumor cell survival” value (AMML; 1 ug/ml, 1 hr) was 95%. For the same molecule, the “% tumor cell survival” value (AMML; 1 ug/ml, 4 hr) was 85%, the “% tumor cell survival” value (AMML; 1 ug/ml, 24 hr) was 66% and the “% tumor cell survival” value (AMML; 5 ug/ml, 1 hr) was 50%. For the same molecule, the “% tumor cell survival” value (AMML; 5 ug/ml, 4 hr) was 52%, the “% tumor cell survival” value (AMML; 5 ug/ml, 24 hr) was 6% and the “% tumor cell survival” value (AMML; 10 ug/ml, 1 hr) was 60%. For the same molecule, the “% tumor cell survival” value (AMML; 10 ug/ml, 4 hr) was 41%, the “% tumor cell survival” value (AMML; 10 ug/ml, 24 hr) was 21% and the “% tumor cell survival” value (AMML; 25 ug/ml, 1 hr) was 20%. For the same molecule, the “% tumor cell survival” value (AMML; 25 ug/ml, 4 hr) was 15%, the “% tumor cell survival” value (AMML; 25 ug/ml, 24 hr) was 14% and the “% tumor cell survival” value (AMML; 50 ug/ml, 1 hr) was 4%. For the same molecule, the “% tumor cell survival” value (AMML; 50 ug/ml, 4 hr) was 3%, the “% tumor cell survival” value (AMML; 50 ug/ml, 24 hr) was 4% and the “protection of surviving hosts against second graft of 1000 untreated L-1210 cells” value (L-1210 leukemia cells) was “did not confer protection”. The “reduction of cell survival” value (ALL (N cell leukemia); ALL lymphoblasts, as low as 1 ug) was 75%, the “% tumor cell survival” value (ALL (N cell leukemia); 1 ug/ml, 1 hr) was 98% and the “% tumor cell survival” value (ALL (N cell leukemia); 1 ug/ml, 4 hr) was 76%. For the same molecule, the “% tumor cell survival” value (ALL (N cell leukemia); 1 ug/ml, 24 hr) was 25%, the “% tumor cell survival” value (ALL (N cell leukemia); 5 ug/ml, 1 hr) was 46% and the “% tumor cell survival” value (ALL (N cell leukemia); 5 ug/ml, 4 hr) was 29%. The “% tumor cell survival” value (ALL (N cell leukemia); 5 ug/ml, 24 hr) was 7%, the “% tumor cell survival” value (ALL (N cell leukemia); 10 ug/ml, 1 hr) was 32% and the “% tumor cell survival” value (ALL (N cell leukemia); 10 ug/ml, 4 hr) was 15%. The “% tumor cell survival” value (ALL (N cell leukemia); 10 ug/ml, 24 hr) was 0%, the “% tumor cell survival” value (ALL (N cell leukemia); 25 ug/ml, 1 hr) was 15% and the “% tumor cell survival” value (ALL (N cell leukemia); 25 ug/ml, 4 hr) was 15%. The “% tumor cell survival” value (ALL (N cell leukemia); 25 ug/ml, 24 hr) was 0%, the “% tumor cell survival” value (ALL (N cell leukemia); 50 ug/ml, 1 hr) was 0% and the “% tumor cell survival” value (ALL (N cell leukemia); 50 ug/ml, 4 hr) was 0%. The “% tumor cell survival” value (ALL (N cell leukemia); 50 ug/ml, 24 hr) was 0%, the T.C.D.100 (L1210 MTX; L1210 MTX, 24 hours exposure) was 3.75 µM and the IC50 (L1210 MTX; Mus musculus, L1210, 24 h, read-out: T.C.D.50) was 1.94 µM. For the same molecule, the “levels of radiolabeled MMTV polypeptides higher than in parallel controls” value (MMTV proteins; 15 min pulse labelling at end of 24 and 48 hour treatment) was 1.5 fold, the activity at 15 µM (MMTV proteins; 24 hr, 15 min pulse labelling) was 181% and the activity at 15 µM (MMTV proteins; 48 hr, 15 min pulse labelling) was 154%. It also gave an activity at 15 µM (MMTV proteins; 48 hr, 24 hr labeling) of 125%, an activity at 15 µM (MMTV proteins; 24 h, 24 hr, 24 hr labeling) of 128% and an IC50 (L1210DDP; 24 h, read-out: T.C.D.50) of 0.525 µM. The “concentration at which remaining L1210DDP population becomes sensitive” value (L1210DDP; 24 hours exposure) was 4 to 15 µM and the “share of L1210DDP cells highly susceptible” value (L1210DDP; doses of 1 uM, 24 hours) was “Approximately 60%”.
